In patent US8277824B2, “Solubilization of cyclohexane-based carboxamide derivatives for use as sensates in consumer products” (The Procter & Gamble Company, priority 2008, dated 2012):
Read-outs that look alike come from different tables or passages of the source. Values belong to the compound of their own block, whether it stands above or below them.

Experiments:
[1] = concentration level where the cooling effect could be clearly recognized; Emberger and Hopp 1987; cited from earlier work
[2] = Experimental solubility limit of G-180 in liquid solvents (visual clarity); format: physicochemical; details: 25° C.
Experimental: The solubility of G-180 in various solvents was determined as follows. Aliquot one to twenty grams of a target solvent into a vial or flask. Weigh out G-180 to provide a concentration of 25%. […] Visually inspect for clarity. If the solution is not completely clear, add solvent, calculate new concentration of G-180 and repeat the solubilization energy and check for clarity. Once a level of clarity is achieved, repeat the process but increase the G-180 concentration by 10% until clarity is diminished. Once these cross points of clarity are achieved, this is reported as the experimental solubility limit of G-180 in the respective solvent.

[3] = demonstrated in commonly assigned U.S. Application No. 61/003,863; cited from earlier work
Cooling effect (sensory) = format: in vivo; details: neoisomer prepared in Procter & Gamble laboratories
Text: Many of the compounds above including menthol have relatively low potency and the duration of the cooling effect is typically short-lived. Thus, it is necessary to include fairly high levels of such compounds when formulating products, which increases cost. In addition, many of these compounds are relatively high cost ingredients since they are expensive to manufacture on an industrial scale. Therefore, compounds with high potency and long lasting cooling effect are highly sought that will require only small amounts for incorporation in a variety of consumer products to provide high impact and long-lasting effect. Such potent and long lasting coolant compounds have recently been described for example in WO 2005/049553A1 to Givaudan including ρ-menthane carboxamides substituted at the amide N-position with an aryl moiety bearing certain substituents. Examples include N-(4-cyanomethylphenyl)-ρ-menthanecarboxamide; N-(4-sulfamoylphenyl)-ρ-menthanecarboxamide; N-(4-cyanophenyl)-ρ-menthanecarboxamide; N-(4-acetylphenyl)-ρ-menthanecarboxamide, N-(4-hydroxymethylphenyl)-ρ-menthanecarboxamide and N-(3-hydroxy-4-methoxyphenyl)-ρ-menthanecarboxamide. […]

SMILES: CC(C)[C@@H]1CC[C@@H](C)C[C@@H]1O [d-neomenthol]
cooling threshold [1]: about 25,000 ppb

SMILES: CC(C)[C@H]1CC[C@H](C)C[C@H]1O [l-neomenthol]
cooling threshold [1]: about 3,000 ppb

SMILES: CC(C)[C@@H]1CC[C@@H](C)C[C@H]1O [L-menthol]
cooling threshold [1]: about 800 ppb

G180 Experimental % Solubility ([2]; solvent 2,3-dimethyl Pyrazine): 20.4% | G180 Experimental % Solubility ([2]; solvent 2,5-dimethyl Pyrazine): 20.0% | G180 Experimental % Solubility ([2]; solvent Benzaldehyde): 16.7% | G180 Experimental % Solubility ([2]; solvent Benzyl Salicylate): 14.7% | G180 Experimental % Solubility ([2]; solvent Benzyl alcohol): 21.2% | G180 Experimental % Solubility ([2]; solvent Cuminylaldehyde): 20.0% | G180 Experimental % Solubility ([2]; solvent Isoamyl propionate): 13.2% | G180 Experimental % Solubility ([2]; solvent Menthone): 15.4% | G180 Experimental % Solubility ([2]; solvent Neryl acetate): 7.4% | G180 Experimental % Solubility ([2]; solvent Para-Tolualdehyde): 15.9% | G180 Experimental % Solubility ([2]; solvent Triacetin): 4.4% | G180 Experimental % Solubility ([2]; solvent Water): <0.1% | G180 Experimental % Solubility ([2]; solvent α-Amyl Cinnamic Aldehyde): 12.1%
SMILES: CC(C)[C@@H]1CC[C@@H](C)C[C@H]1C(=O)Nc1ccc(CC#N)cc1 [G180, N-[4-(cyanomethyl)phenyl]-(1R,2S,5R)-2-isopropyl-5-methylcyclohexanecarboxamide]
cooling effect [3]: intense and long-lasting cooling effect

SMILES: CC(C)[C@@H]1CC[C@@H](C)C[C@@H]1C(=O)Nc1ccc(CC#N)cc1 [neoisomer, N-[4-(cyanomethyl)phenyl]-(1S,2S,5R)-2-isopropyl-5-methylcyclohexanecarboxamide]
cooling effect (Cooling effect (sensory)): potent and long-lasting cooling effect
